Peptide text beside a SMILES is read from it.

Assay [1] deals with T1, HDAC5 protein (Homo sapiens, UniProt Q9UQL6).
T1 construct: purchased Abcam
Put plainly: Biacore T200 binding affinity to immobilised HDAC5 protein. Conditions: CM5 chip, 1:1 binding model; for kon: read-out: ka. (In SPR one partner is held on a chip, and binding of the other changes the refractive index at the surface.)
Description: For this purpose, HDAC5 protein (Abcam, MA, USA) was dissolved in sodium acetate buffer (pH 4.5), and was bound to a dextran-covered sensor chip surface (CM5 chip) using N-hydroxysuccinimide (NHS) and N-ethyl-N0-(3-dimethylaminopropyl)-carbodiimide hydrochloride (EDAC) as crosslinkers. The unreacted active group of dextran was blocked by the addition of ethanolamine (1M) thereto. The number of HDAC5 binding to the chip was measured as 4440RU (1000 RU=1 ng/mm^2). […] Rate constants for association (ka) and dissociation (kd), and a dissociation constant (KD) were calculated using BIAevaluation software and a 1:1 binding model.

Assay [2] concerns collagen-induced arthritis (CIA) rats. The assay can be described thus: Collagen-induced arthritis animal model. It counts as in vivo, Wistar rats. The source says:
In order to determine whether or not the peptide according to the present invention is effective in treating rheumatoid arthritis in vivo, the effect of treating arthritis thereof was detected in a collagen-induced arthritis animal model. For this purpose, female Wistar rats (105-135 g, n=67) were purchased from Harlan Co. Ltd. (Indianapolis, IN, USA). All rats were bred in a pathogen-free environment and sterilized standard rat feed (Harlan Co. Ltd, USA) and water were freely fed to the rats. Animal experiments were conducted with the approval of the Institutional Animal Care and Use Committee (IACUC) of Seoul National University. Collagen-induced arthritis was induced in a known manner (Nishikawa et al., Arthritis and rheumatism. 2003; 48:2670-81).
Specifically, 500 μg of bovine collagen type II was injected along with a mixture of 0.5 mL of 0.1 M acetic acid and 0.5 mL of Freund's incomplete adjuvant into rat muscle. On the 7th day, 0.5 mL of 0.1 M acetic acid and 0.5 mL of Freund's incomplete adjuvant were further inoculated along with 250 μg of bovine collagen type II to produce collagen-induced arthritis (CIA) rats. The rats were classified into a CIA-induced group (n=10), a CIA-induced group injected with a low concentration of the peptide of SEQ ID NO: 1 (LD AIP, 15 mg/kg, n=10), a CIA-induced group injected with a high concentration of the peptide of SEQ ID NO: 1 (HD AIP, 30 mg/kg, n=10), a CIA-induced group injected with etanercept (Enbrel) (10 mg/kg, n=10), and a normal group (n=6). From 28 days after the first collagen injection, the peptide of SEQ ID NO: 1 was injected subcutaneously into the back of the neck twice a week over 4 weeks. Etanercept was injected intraperitoneally three times a week over 4 weeks. Swelling of both hind paws was measured twice using a plethysmometer (LE7500 N, IWOO Scientific Corporation, KOREA) on day 22, 29, 31, 35, 38, 42, 45, 49, 52, and 56. The plethysmometer was used after calibration to a weight of 3 mL. The measured area was marked by drawing a line, and measurement was conducted adjacent to the ankle. Hind paw swelling increase (%) and hind paw swelling inhibition (%) were calculated using the following equations.
In order to observe the degree of bone damage in the hind paw, microcomputed tomography (micro-CT) was performed using a SkyScan 1172 (SkyScan, Aartselaar, Belgium). The total volume (TV; mm^3), bone volume (BV; mm^3) and bone volume fraction (BV/TV; %) were analyzed using CTAn software. On the 57th day, rats were sacrificed and subjected to histological analysis. Both hind paws and joints were collected, fixed in 10% buffered formalin, and demineralized in 30% citrate-buffered formic acid at 4° ° C. for 3 days. Paraffin blocks were produced, sliced into sections with a thickness of 4 μm and stained with hematoxylin and eosin (H&E), and then the pathological score was evaluated with an optical microscope. The joint inflammation index was measured based on the following criteria (Shiozawa et al., J Clin Invest. 1997; 99 (6):1210-1216). 0, normal synovium; 1, synovial membrane hypertrophy and cell infiltrates; 2, pannus and cartilage erosion; 3, major erosion of cartilage and subchondral bone; and 4, loss of joint integrity and ankylosis.
The rats were sacrificed and systemic blood was collected, and the concentrations of TNF-α and IL-6 in the blood were measured with an ELISA kit (R&D, Minneapolis, MN, USA).

T1 sequence (Q9UQL6 whole entry, species assumed): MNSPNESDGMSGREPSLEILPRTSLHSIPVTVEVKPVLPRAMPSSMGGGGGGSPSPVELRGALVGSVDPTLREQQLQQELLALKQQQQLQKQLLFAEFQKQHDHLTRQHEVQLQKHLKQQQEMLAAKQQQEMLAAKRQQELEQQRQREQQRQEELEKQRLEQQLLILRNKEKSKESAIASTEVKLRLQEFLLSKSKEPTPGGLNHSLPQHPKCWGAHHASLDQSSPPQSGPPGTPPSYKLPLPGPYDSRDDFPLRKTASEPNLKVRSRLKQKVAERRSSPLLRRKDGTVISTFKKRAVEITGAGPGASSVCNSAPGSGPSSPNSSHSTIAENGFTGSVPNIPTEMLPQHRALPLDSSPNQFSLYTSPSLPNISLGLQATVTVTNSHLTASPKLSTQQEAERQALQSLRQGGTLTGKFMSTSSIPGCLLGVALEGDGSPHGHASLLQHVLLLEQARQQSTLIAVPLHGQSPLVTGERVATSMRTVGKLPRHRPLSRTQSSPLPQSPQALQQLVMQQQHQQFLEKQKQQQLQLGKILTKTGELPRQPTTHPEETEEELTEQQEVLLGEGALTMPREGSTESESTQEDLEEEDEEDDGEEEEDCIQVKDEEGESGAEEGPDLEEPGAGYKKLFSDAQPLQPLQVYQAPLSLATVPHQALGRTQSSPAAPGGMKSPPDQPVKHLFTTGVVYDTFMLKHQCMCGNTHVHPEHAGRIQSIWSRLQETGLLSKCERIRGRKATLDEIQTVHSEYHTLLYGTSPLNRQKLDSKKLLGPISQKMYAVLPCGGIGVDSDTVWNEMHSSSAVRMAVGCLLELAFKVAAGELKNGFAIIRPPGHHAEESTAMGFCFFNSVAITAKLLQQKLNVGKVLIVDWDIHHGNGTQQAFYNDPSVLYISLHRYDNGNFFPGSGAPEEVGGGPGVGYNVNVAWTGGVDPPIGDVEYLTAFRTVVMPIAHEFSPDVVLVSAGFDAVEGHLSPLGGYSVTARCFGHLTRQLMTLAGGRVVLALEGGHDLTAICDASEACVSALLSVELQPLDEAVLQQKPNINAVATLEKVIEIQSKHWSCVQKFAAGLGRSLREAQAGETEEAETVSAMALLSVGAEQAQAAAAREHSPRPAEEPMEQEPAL

On to `CSCC[C@H](NC(=O)[C@H](CCCCN)NC(=O)CN)C(=O)N[C@@H](CO)C(=O)N[C@H](C(=O)N[C@@H](CCCNC(=N)N)C(=O)NCC(=O)N[C@@H](CCCNC(=N)N)C(=O)N[C@@H](CCCCN)C(=O)N[C@@H](CCSC)C(=O)N[C@@H](CCSC)C(=O)N[C@@H](CCCNC(=N)N)C(=O)N[C@@H](CCCNC(=N)N)C(=O)N[C@@H](CCCCN)C(=O)N[C@@H](CCCCN)C(=O)O)[C@@H](C)O` [SEQ ID NO: 8] (H-GKMSTRGRKMMRRKK-OH; N-terminus and C-terminus assumed), for which, in assay [1], the Kd turned out to be 86.8 nM, the kd was 0.004776 s⁻¹ and the kon amounted to 55000 M⁻¹ s⁻¹.
Taken in the same sequence, the figures for `CSCC[C@H](NC(=O)[C@H](CCCCN)NC(=O)CN)C(=O)N[C@@H](CO)C(=O)N[C@H](C(=O)N[C@@H](CCCNC(=N)N)C(=O)NCC(=O)N[C@@H](CCCNC(=N)N)C(=O)N[C@@H](CCCCN)C(=O)N[C@@H](CCSC)C(=O)N[C@@H](CS)C(=O)N[C@@H](CCCNC(=N)N)C(=O)N[C@@H](CCCNC(=N)N)C(=O)N[C@@H](CCCCN)C(=O)N[C@@H](CCCCN)C(=O)O)[C@@H](C)O` [SEQ ID NO: 6] (H-GKMSTRGRKMCRRKK-OH; N-terminus and C-terminus assumed) were 444 nM, 0.04463 s⁻¹ and 100000 M⁻¹ s⁻¹.
In the case of `CSCC[C@H](NC(=O)[C@H](CS)NC(=O)[C@H](CCCCN)NC(=O)[C@H](CCCNC(=N)N)NC(=O)CNC(=O)[C@H](CCCNC(=N)N)NC(=O)[C@@H](NC(=O)[C@H](CO)NC(=O)[C@H](CS)NC(=O)[C@H](CCCCN)NC(=O)CN)[C@@H](C)O)C(=O)N[C@@H](CCCNC(=N)N)C(=O)N[C@@H](CCCNC(=N)N)C(=O)N[C@@H](CCCCN)C(=O)N[C@@H](CCCCN)C(=O)O` [SEQ ID NO: 2] (H-GKCSTRGRKCMRRKK-OH; N-terminus and C-terminus assumed), in assay [1], the kd was 0.06872 s⁻¹ and the kon is 74400 M⁻¹ s⁻¹.
Taken in the same sequence, the figures for `CSCC[C@H](NC(=O)[C@H](CCCCN)NC(=O)[C@H](CCCNC(=N)N)NC(=O)CNC(=O)[C@H](CCCNC(=N)N)NC(=O)[C@@H](NC(=O)[C@H](CO)NC(=O)[C@H](CS)NC(=O)[C@H](CCCCN)NC(=O)CN)[C@@H](C)O)C(=O)N[C@@H](CS)C(=O)N[C@@H](CCCNC(=N)N)C(=O)N[C@@H](CCCNC(=N)N)C(=O)N[C@@H](CCCCN)C(=O)N[C@@H](CCCCN)C(=O)O` [SEQ ID NO: 3] (H-GKCSTRGRKMCRRKK-OH; N-terminus and C-terminus assumed) were 0.05953 s⁻¹ and 82100 M⁻¹ s⁻¹.
In the case of `CSCC[C@H](NC(=O)[C@H](CCCCN)NC(=O)CN)C(=O)N[C@@H](CO)C(=O)N[C@H](C(=O)N[C@@H](CCCNC(=N)N)C(=O)NCC(=O)N[C@@H](CCCNC(=N)N)C(=O)N[C@@H](CCCCN)C(=O)N[C@@H](CS)C(=O)N[C@@H](CCSC)C(=O)N[C@@H](CCCNC(=N)N)C(=O)N[C@@H](CCCNC(=N)N)C(=O)N[C@@H](CCCCN)C(=O)N[C@@H](CCCCN)C(=O)O)[C@@H](C)O` [SEQ ID NO: 7] (H-GKMSTRGRKCMRRKK-OH; N-terminus and C-terminus assumed), in assay [1], the affinity, expressed as Kd, was 704 nM; the kd was 0.04757 s⁻¹; the kon stood at 67500 M⁻¹ s⁻¹.
Taken in the same sequence, the figures for `CSCC[C@H](NC(=O)[C@H](CCCCN)NC(=O)[C@H](CCCNC(=N)N)NC(=O)CNC(=O)[C@H](CCCNC(=N)N)NC(=O)[C@@H](NC(=O)[C@H](CO)NC(=O)[C@H](CS)NC(=O)[C@H](CCCCN)NC(=O)CN)[C@@H](C)O)C(=O)N[C@@H](CCSC)C(=O)N[C@@H](CCCNC(=N)N)C(=O)N[C@@H](CCCNC(=N)N)C(=O)N[C@@H](CCCCN)C(=O)N[C@@H](CCCCN)C(=O)O` [SEQ ID NO: 4] (H-GKCSTRGRKMMRRKK-OH; N-terminus and C-terminus assumed) were 940 nM, 0.06788 s⁻¹ and 72200 M⁻¹ s⁻¹.
With etanercept [reference compound], the “Concentration of IL-6 in blood” value in assay [2] (ELISA, high concentration of peptide or etanercept, CIA-induced group 109 pg/ml) turned out to be 24 pg/mL. The “Concentration of TNF-α in blood” value in assay [2] (ELISA, high concentration of peptide or etanercept, CIA-induced group 128 pg/ml) turned out to be 39 pg/mL. The “Microscopic observation of joint tissues (inflammation, H&E)” value in assay [2] (FIG. 4A) is reported as “results similar to the CIA-induced group injected with a low concentration of SEQ ID NO: 1”. Besides, in assay [2] (etanercept 10 mg/kg intraperitoneally), the “Hind paw swelling inhibition (%)” value worked out at 37%. Moreover, the “Hind paw swelling (%)” value in assay [2] (peptide 15 or 30 mg/kg subcutaneously twice a week, etanercept 10 mg/kg intraperitoneally three times a week, 4 weeks) is recorded as “decreased hind paw swelling (%) within 35 to 56 days (P<0.05)”. Also, in assay [2] (score 0-4, CIA-induced group 3.3±0.67), the Inflammation index turned out to be 2.3±1.16.
For the compound `CSCC[C@H](NC(=O)[C@H](CCCCN)NC(=O)CN)C(=O)N[C@@H](CO)C(=O)N[C@H](C(=O)N[C@@H](CCCNC(=N)N)C(=O)NCC(=O)N[C@@H](CCCNC(=N)N)C(=O)N[C@@H](CCCCN)C(=O)N[C@@H](CS)C(=O)N[C@@H](CS)C(=O)N[C@@H](CCCNC(=N)N)C(=O)N[C@@H](CCCNC(=N)N)C(=O)N[C@@H](CCCCN)C(=O)N[C@@H](CCCCN)C(=O)O)[C@@H](C)O` [SEQ ID NO: 5] (H-GKMSTRGRKCCRRKK-OH; N-terminus and C-terminus assumed), in assay [1], the kd stood at 0.03088 s⁻¹ and the kon turned out to be 65900 M⁻¹ s⁻¹.

A word on the Kd: it is the constant that tells how readily two partners part at equilibrium.

The record behind these values is patent publication US12486303B2, “Use of peptide for inhibiting functions and expressions of multiple disease biomarkers” (NIBEC CO., LTD., priority 2018, dated 2025).
